Legend:
Type in all cases: in vivo
barnyardgrass (Ec) [1] = assay: Test Example 1: herbicidal effects by paddy field soil treatment; conditions: 100 g of the active ingredient per 10 ares, 21st day after the application, index 0-5 of Table 47;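 also: grade of growth control; 5 = at least 90%; 4 = 70 to 90%; 3 = 50 to 70%; 2 = 30 to 50%; 1 = 10 to 30%; 0 = under 10%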
How it was run: (§1)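 Flooded paddy-soil pots (3 cm water) sown after puddling/leveling; treatment 100 g a.i./10 ares; greenhouse culture; herbicidal effect rated visually on a scoring scale at 21 d post-application.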

bulrush (Sc) = assay: as above; conditions: 100 g of the active ingredient per 10 ares, 21st day after the application, index 0-5 of Table 47;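 also: grade of growth control; 5 = at least 90%; 4 = 70 to 90%; 3 = 50 to 70%; 2 = 30 to 50%; 1 = 10 to 30%; 0 = under 10%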
How it was run: as §1

monochoria (Mo) = assay: as above; conditions: 100 g of the active ingredient per 10 ares, 21st day after the application, index 0-5 of Table 47;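 also: grade of growth control; 5 = at least 90%; 4 = 70 to 90%; 3 = 50 to 70%; 2 = 30 to 50%; 1 = 10 to 30%; 0 = under 10%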
How it was run: as §1

Digitaria ciliaris (Di) = assay: Test Example 2: herbicidal effects by upland field soil treatment; conditions: 100 g of the active ingredient per 10 ares, evaluated on the 21st day after application;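 also: grade of growth control; 5 = at least 90%; 4 = 70 to 90%; 3 = 50 to 70%; 2 = 30 to 50%; 1 = 10 to 30%; 0 = under 10%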
Description: (§2) (Test on Herbicidal Effects by Upland Field Soil Treatment)

barnyardgrass (Ec) [2] = assay: as above; conditions: 100 g of the active ingredient per 10 ares, evaluated on the 21st day after application
Description: as §2

[3] = test system: common lambsquarters (Ch); assay: as above; conditions: 100 g of the active ingredient per 10 ares, evaluated on the 21st day after application
Description: as §2

pale smartweed (Po) [4] = assay: as above; conditions: 100 g of the active ingredient per 10 ares, evaluated on the 21st day after application
Description: as §2

rice flatsedge (Ci) [5] = assay: as above; conditions: 100 g of the active ingredient per 10 ares, evaluated on the 21st day after application
Description: as §2

slender amaranth (Am) [6] = assay: as above; conditions: 100 g of the active ingredient per 10 ares, evaluated on the 21st day after application
Description: as §2

Diaitaria ciliaris (Di) = assay: Test Example 3: herbicidal effects by upland field foliage treatment; set-up: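 grade of growth control; 5 = at least 90%; 4 = 70 to 90%; 3 = 50 to 70%; 2 = 30 to 50%; 1 = 10 to 30%; 0 = under 10%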; conditions: 100 g active ingredient per 10 ares, evaluated 14th day after treatment
How it was run: (§3)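 Seeds → sand pot (120 cm^2) → soil cover → greenhouse 2 wk → foliar treatment → greenhouse → herbicidal score at 14 d post-treatment against graded standards.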

barnyardgrass (Ec) [7] = assay: as above; set-up: scale not given here; conditions: 100 g active ingredient per 10 ares, evaluated 14th day after treatment
How it was run: as §3

[8] = test system: common lambsquarters (Ch); assay: as above; set-up: scale not given here; conditions: 100 g active ingredient per 10 ares, evaluated 14th day after treatment
How it was run: as §3

pale smartweed (Po) [9] = assay: as above; set-up: scale not given here; conditions: 100 g active ingredient per 10 ares, evaluated 14th day after treatment
How it was run: as §3

rice flatsedge (Ci) [10] = assay: as above; set-up: scale not given here; conditions: 100 g active ingredient per 10 ares, evaluated 14th day after treatment
How it was run: as §3

slender amaranth (Am) [11] = assay: as above; set-up: scale not given here; conditions: 100 g active ingredient per 10 ares, evaluated 14th day after treatment
How it was run: as §3

cotton (Go) = assay: Test Example 4: crop plant selectivity by upland field soil treatment (cotton), phytotoxicity; set-up: scale not given here; conditions: dose 6.3 g ai/10 a, evaluated 21st day after application
How it was run: (§4)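 Cotton is sown alongside weeds in pots of sand, covered with soil, and the soil surface is treated. After greenhouse growth, herbicidal activity and phytotoxicity are graded on the 21st day.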

China jute (Ab) [12] = assay: Test Example 4: crop plant selectivity by upland field soil treatment (cotton), herbicidal effects; set-up: scale not given here; conditions: dose 6.3 g ai/10 a, evaluated 21st day after application
How it was run: as §4

[13] = test system: common lambsquarters (Ch); assay: as above; set-up: scale not given here; conditions: dose 6.3 g ai/10 a, evaluated 21st day after application
How it was run: as §4

green foxtail (Se) [14] = assay: as above; set-up: scale not given here; conditions: dose 6.3 g ai/10 a, evaluated 21st day after application
How it was run: as §4

pale smartweed (Po) [15] = assay: as above; set-up: scale not given here; conditions: dose 6.3 g ai/10 a, evaluated 21st day after application
How it was run: as §4

slender amaranth (Am) [16] = assay: as above; set-up: scale not given here; conditions: dose 6.3 g ai/10 a, evaluated 21st day after application
How it was run: as §4

wheat (Tr) = assay: Test Example 5: crop plant selectivity by upland field soil treatment (wheat), phytotoxicity; set-up: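 grade of crop injury; 5 = at least 90%; 4 = 70 to 90%; 3 = 50 to 70%; 2 = 30 to 50%; 1 = 10 to 30%; 0 = under 10%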; conditions: dose 6.3 g ai/10a, 21st day after application
How it was run: (§5)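 Seeds sown in pots of sand and covered with soil. Soil treatment applied. Plants cultured in a greenhouse. Effects rated by standard scale after 21 days.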

China jute (Ab) [17] = assay: Test Example 5: crop plant selectivity by upland field soil treatment (wheat), herbicidal effects; set-up: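 grade of growth control; 5 = at least 90%; 4 = 70 to 90%; 3 = 50 to 70%; 2 = 30 to 50%; 1 = 10 to 30%; 0 = under 10%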; conditions: dose 6.3 g ai/10a, 21st day after application
How it was run: as §5

[18] = test system: common lambsquarters (Ch); assay: as above; set-up: scale not given here; conditions: dose 6.3 g ai/10a, 21st day after application
How it was run: as §5

green foxtail (Se) [19] = assay: as above; set-up: scale not given here; conditions: dose 6.3 g ai/10a, 21st day after application
How it was run: as §5

pale smartweed (Po) [20] = assay: as above; set-up: scale not given here; conditions: dose 6.3 g ai/10a, 21st day after application
How it was run: as §5

slender amaranth (Am) [21] = assay: as above; set-up: scale not given here; conditions: dose 6.3 g ai/10a, 21st day after application
How it was run: as §5

soybean (Gl) = assay: Test Example 6: crop plant selectivity by upland field soil treatment (soybean), phytotoxicity; set-up: scale not given here; conditions: dose 6.3 g ai/10a, 21st day after application
How it was run: (§6)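 Pre-emergence soil treatment; sand-filled pots, seeds sown then soil-covered; greenhouse culture; visual rating of weed control and soybean injury on day 21 post-application per standard scale.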

China jute (Ab) [22] = assay: Test Example 6: crop plant selectivity by upland field soil treatment (soybean), herbicidal effects; set-up: scale not given here; conditions: dose 6.3 g ai/10a, 21st day after application
How it was run: as §6

[23] = test system: common lambsquarters (Ch); assay: as above; set-up: scale not given here; conditions: dose 6.3 g ai/10a, 21st day after application
How it was run: as §6

green foxtail (Se) [24] = assay: as above; set-up: scale not given here; conditions: dose 6.3 g ai/10a, 21st day after application
How it was run: as §6

pale smartweed (Po) [25] = assay: as above; set-up: scale not given here; conditions: dose 6.3 g ai/10a, 21st day after application
How it was run: as §6

slender amaranth (Am) [26] = assay: as above; set-up: scale not given here; conditions: dose 6.3 g ai/10a, 21st day after application
How it was run: as §6

corn (Ze) = assay: Test Example 7: crop plant selectivity by upland field soil treatment (corn), phytotoxicity; set-up: scale not given here; conditions: dose 6.3 g ai/10a, 21st day after application
How it was run: (§7)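 Seeds of corn and of each weed species are sown in a pot of sand and covered with soil. The compound is applied, and the pots are kept in a greenhouse. On the 21st day, weed control and crop injury are judged by set criteria.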

China jute (Ab) [27] = assay: Test Example 7: crop plant selectivity by upland field soil treatment (corn), herbicidal effects; set-up: scale not given here; conditions: dose 6.3 g ai/10a, 21st day after application
How it was run: as §7

[28] = test system: common lambsquarters (Ch); assay: as above; set-up: scale not given here; conditions: dose 6.3 g ai/10a, 21st day after application
How it was run: as §7

green foxtail (Se) [29] = assay: as above; set-up: scale not given here; conditions: dose 6.3 g ai/10a, 21st day after application
How it was run: as §7

pale smartweed (Po) [30] = assay: as above; set-up: scale not given here; conditions: dose 6.3 g ai/10a, 21st day after application
How it was run: as §7

slender amaranth (Am) [31] = assay: as above; set-up: scale not given here; conditions: dose 6.3 g ai/10a, 21st day after application
How it was run: as §7

CC(C)ON=Cc1cc(-c2ccc(C(F)(F)F)n(C)c2=O)c(F)cc1Cl [Compound 1-189]
5: Herbicidal effects Ec (barnyardgrass (Ec) [1]) | Herbicidal effects Sc (bulrush (Sc)) | Herbicidal effects Mo (monochoria (Mo)) | Herbicidal effects Di (Digitaria ciliaris (Di)) | Herbicidal effects Ec (barnyardgrass (Ec) [2]) | Herbicidal effects Ch [3] | Herbicidal effects Po (pale smartweed (Po) [4]) | Herbicidal effects Ci (rice flatsedge (Ci) [5]) | Herbicidal effects Am (slender amaranth (Am) [6]) | Herbicidal effects Di (Diaitaria ciliaris (Di)) | Herbicidal effects Ec (barnyardgrass (Ec) [7]) | Herbicidal effects Ch [8] | Herbicidal effects Po (pale smartweed (Po) [9]) | Herbicidal effects Ci (rice flatsedge (Ci) [10]) | Herbicidal effects Am (slender amaranth (Am) [11]) | Herbicidal effects Ab (China jute (Ab) [12]) | Herbicidal effects Ch [13] | Herbicidal effects Se (green foxtail (Se) [14]) | Herbicidal effects Po (pale smartweed (Po) [15]) | Herbicidal effects Am (slender amaranth (Am) [16]) | Herbicidal effects Ab (China jute (Ab) [17]) | Herbicidal effects Ch [18] | Herbicidal effects Se (green foxtail (Se) [19]) | Herbicidal effects Po (pale smartweed (Po) [20]) | Herbicidal effects Am (slender amaranth (Am) [21]) | Herbicidal effects Ab (China jute (Ab) [22]) | Herbicidal effects Ch [23] | Herbicidal effects Se (green foxtail (Se) [24]) | Herbicidal effects Po (pale smartweed (Po) [25]) | Herbicidal effects Am (slender amaranth (Am) [26]) | Herbicidal effects Ab (China jute (Ab) [27]) | Herbicidal effects Ch [28] | Herbicidal effects Se (green foxtail (Se) [29]) | Herbicidal effects Po (pale smartweed (Po) [30]) | Herbicidal effects Am (slender amaranth (Am) [31])
0: Phytotoxicity Go (cotton (Go))
1: Phytotoxicity Tr (wheat (Tr)) | Phytotoxicity Gl (soybean (Gl)) | Phytotoxicity Ze (corn (Ze))

CON=C(C)c1cc(-c2ccc(C(F)(F)F)n(C)c2=O)c(F)cc1Cl [Compound 1-192]
1: Phytotoxicity Gl (soybean (Gl))
5: Herbicidal effects Ec (barnyardgrass (Ec) [1]) | Herbicidal effects Sc (bulrush (Sc)) | Herbicidal effects Mo (monochoria (Mo)) | Herbicidal effects Di (Digitaria ciliaris (Di)) | Herbicidal effects Ec (barnyardgrass (Ec) [2]) | Herbicidal effects Ch [3] | Herbicidal effects Po (pale smartweed (Po) [4]) | Herbicidal effects Ci (rice flatsedge (Ci) [5]) | Herbicidal effects Am (slender amaranth (Am) [6]) | Herbicidal effects Di (Diaitaria ciliaris (Di)) | Herbicidal effects Ec (barnyardgrass (Ec) [7]) | Herbicidal effects Ch [8] | Herbicidal effects Po (pale smartweed (Po) [9]) | Herbicidal effects Ci (rice flatsedge (Ci) [10]) | Herbicidal effects Am (slender amaranth (Am) [11]) | Herbicidal effects Ab (China jute (Ab) [12]) | Herbicidal effects Ch [13] | Herbicidal effects Se (green foxtail (Se) [14]) | Herbicidal effects Po (pale smartweed (Po) [15]) | Herbicidal effects Am (slender amaranth (Am) [16]) | Herbicidal effects Ab (China jute (Ab) [17]) | Herbicidal effects Ch [18] | Herbicidal effects Se (green foxtail (Se) [19]) | Herbicidal effects Po (pale smartweed (Po) [20]) | Herbicidal effects Am (slender amaranth (Am) [21]) | Herbicidal effects Ab (China jute (Ab) [22]) | Herbicidal effects Ch [23] | Herbicidal effects Se (green foxtail (Se) [24]) | Herbicidal effects Po (pale smartweed (Po) [25]) | Herbicidal effects Am (slender amaranth (Am) [26]) | Herbicidal effects Ab (China jute (Ab) [27]) | Herbicidal effects Ch [28] | Herbicidal effects Se (green foxtail (Se) [29]) | Herbicidal effects Po (pale smartweed (Po) [30]) | Herbicidal effects Am (slender amaranth (Am) [31])
0: Phytotoxicity Go (cotton (Go))
2: Phytotoxicity Tr (wheat (Tr)) | Phytotoxicity Ze (corn (Ze))

Source: US6472348B1, “Pyridone derivatives and herbicides” (Kumiai Chemical Industry Co., Ltd., priority 1996, dated 2002)
